# Source: PubChem BioAssay (NCI)
#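 A five-concentration, 48-hour dose response in 96-well plates underlies each endpoint, interpolated linearly between surrounding concentrations. At the GI50, growth is halved. TGI marks complete inhibition of growth.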
# Experiments:
# Experiment in all cases: growth of human tumour cells (NCI), 48 h
# CCRF-CEM leukemia = system: CCRF-CEM leukemia
# HT29 colon = system: HT29 colon
# IGROV1 ovarian = system: IGROV1 ovarian
# KM12 colon = system: KM12 colon
# MALME-3M melanoma = system: MALME-3M melanoma
# MDA-MB-435 = system: MDA-MB-435
# NCI-H226 lung = system: NCI-H226 lung
# OVCAR-4 ovarian = system: OVCAR-4 ovarian
# UO-31 renal = system: UO-31 renal
# SR leukemia = system: SR leukemia
Compound,GI50 (CCRF-CEM leukemia),TGI (CCRF-CEM leukemia),GI50 (HT29 colon),TGI (HT29 colon),GI50 (IGROV1 ovarian),TGI (IGROV1 ovarian),GI50 (KM12 colon),TGI (KM12 colon),GI50 (MALME-3M melanoma),TGI (MALME-3M melanoma),GI50 (MDA-MB-435),TGI (MDA-MB-435),GI50 (NCI-H226 lung),TGI (NCI-H226 lung),GI50 (OVCAR-4 ovarian),TGI (OVCAR-4 ovarian),GI50 (UO-31 renal),TGI (UO-31 renal),GI50 (SR leukemia),TGI (SR leukemia)
C=CCC(N[C@@H](CO)c1ccccc1)c1cn(C(=O)OCC)c2ccccc12 (stereo partly drawn),19.2 µM,56.7 µM,23.3 µM,62.7 µM,23.1 µM,> 100 µM,15.2 µM,33.6 µM,17.1 µM,39.1 µM,22.7 µM,55.9 µM,23.1 µM,48.7 µM,81.5 µM,> 100 µM,32.3 µM,> 100 µM,–,–
CO[C@H]1CC(O[C@@H]2/C(C)=C/C[C@@H]3C[C@@H](C[C@]4(CC[C@H](C)[C@@H](C5CCCCC5)O4)O3)OC(=O)[C@@H]3C=C(C)/C(=N/O)[C@H]4OC/C(=C\C=C\[C@@H]2C)[C@]43O)O[C@@H](C)C1O (stereo partly drawn),–,–,0.966 µM,2.05 µM,1.07 µM,2.69 µM,0.826 µM,1.52 µM,1.17 µM,3.15 µM,1.05 µM,2.41 µM,0.73 µM,1.43 µM,1.02 µM,2.65 µM,0.769 µM,1.98 µM,1.11 µM,2.79 µM
O=C(/C=C/c1cccc([N+](=O)[O-])c1)c1ccc([N+](=O)[O-])cc1,–,> 100 µM,–,> 100 µM,–,> 100 µM,–,> 100 µM,–,> 100 µM,–,–,–,> 100 µM,–,> 100 µM,–,> 100 µM,–,> 100 µM
COc1cccc(Nc2nc3ccccc3c3occc23)c1,–,–,–,–,4.95 µM,25.9 µM,3.13 µM,10.7 µM,–,–,10.7 µM,22.6 µM,–,–,11.2 µM,29.8 µM,6.98 µM,27.6 µM,21.2 µM,95 µM
CN1CCN(Cc2ccc(NC(=O)c3cncc(C#Cc4cnc(N)c5cccnc45)c3)cc2C(F)(F)F)CC1,0.234 µM,> 50 µM,0.157 µM,> 50 µM,–,–,0.069 µM,> 50 µM,0.0558 µM,0.273 µM,0.15 µM,–,0.191 µM,> 50 µM,0.149 µM,> 50 µM,1.1 µM,2.78 µM,0.293 µM,> 50 µM
Cn1c2c(c3c(Cl)nncc31)Cc1ccccc1-2,15.3 µM,> 100 µM,16.9 µM,44.5 µM,48.9 µM,> 100 µM,32.8 µM,> 100 µM,24.9 µM,85.6 µM,29.7 µM,> 100 µM,15.6 µM,46.8 µM,23.9 µM,> 100 µM,31.4 µM,> 100 µM,–,–
COC(=O)C1C(=O)O[C@@H](c2cc(OC)c(OC)cc2OC)C1C(=O)OC (mixture of isomers),–,> 100 µM,–,> 100 µM,–,> 100 µM,–,> 100 µM,–,> 100 µM,–,–,–,> 100 µM,–,> 100 µM,–,> 100 µM,–,> 100 µM
CCOc1ccccc1N=Nc1c(-c2ccccc2)nn(C(=O)CC(=O)Nc2cccc(C)c2)c1-c1ccccc1,–,> 100 µM,–,> 100 µM,–,> 100 µM,–,> 100 µM,–,> 100 µM,–,–,–,> 100 µM,–,> 100 µM,–,> 100 µM,–,> 100 µM
C/C=C1/CC(C)C(C)(O)C(=O)OCC2C(O)CN3CCC(OC1=O)C23 (stereo not drawn),–,> 100 µM,–,> 100 µM,–,> 100 µM,–,> 100 µM,–,–,–,> 100 µM,–,> 100 µM,–,> 100 µM,–,–,–,> 100 µM
CC1=CC(C)(C)NN1C1=NS(=O)(=O)c2ccccc2N1C,–,> 100 µM,–,> 100 µM,–,> 100 µM,–,> 100 µM,–,–,–,> 100 µM,–,> 100 µM,–,> 100 µM,–,> 100 µM,–,–
CC1NC(=O)C2=C1C(=O)NC(=O)C2 (stereo not drawn),> 100 µM,> 100 µM,–,–,> 100 µM,> 100 µM,> 100 µM,> 100 µM,–,–,> 100 µM,> 100 µM,> 100 µM,> 100 µM,–,–,> 100 µM,> 100 µM,–,–
NC1=NN(c2ccccc2)C(=O)C1C(=O)C(=O)Nc1ccc(Cl)c(Cl)c1 (stereo not drawn),–,> 100 µM,–,> 100 µM,–,> 100 µM,–,> 100 µM,–,> 100 µM,–,–,–,> 100 µM,–,> 100 µM,–,> 100 µM,–,> 100 µM
CCNC(=O)OCc1c(COC(=O)NCC)c(-c2ccc(Cl)c(Cl)c2)n2c1CCC2,–,21.4 µM,–,> 100 µM,–,48.7 µM,–,59 µM,–,30.7 µM,–,–,–,7.85 µM,–,36.1 µM,–,24.3 µM,–,30.1 µM
N#CC(C(=O)/C(=N\NC(N)=O)C(C#N)c1ccccc1)c1ccccc1 (stereo not drawn),–,> 100 µM,–,> 100 µM,–,> 100 µM,–,> 100 µM,–,> 100 µM,–,–,–,> 100 µM,–,> 100 µM,–,> 100 µM,–,> 100 µM
O=C(NCC1CCCO1)c1ccc(NC2=C(Cl)C(=O)N(Cc3ccccc3)C2=O)cc1 (stereo not drawn),–,–,22.2 µM,88 µM,2.93 µM,7.52 µM,17.1 µM,35 µM,–,–,9.33 µM,21.7 µM,11.8 µM,26.7 µM,19.2 µM,44.6 µM,2.67 µM,8.24 µM,12.4 µM,30.9 µM
O=C1c2ccccc2C2CCC1c1ccccc12 (stereo not drawn),–,> 100 µM,–,> 100 µM,–,> 100 µM,–,> 100 µM,–,51.8 µM,–,–,–,> 100 µM,–,76.1 µM,–,70.5 µM,–,58.2 µM
Nc1ccccc1C(=O)CCC1C(=O)NC(=S)NC1=O,–,> 100 µM,–,> 100 µM,–,> 100 µM,–,> 100 µM,–,> 100 µM,–,–,–,> 100 µM,–,> 100 µM,–,> 100 µM,–,> 100 µM
O=C1c2ccccc2-c2c1c1ccccc1c(=O)n2CCCNCCn1c2c(c3ccccc3c1=O)C(=O)c1ccccc1-2,–,–,2.42 µM,10 µM,2.63 µM,32.2 µM,2.32 µM,> 100 µM,22.1 µM,40.3 µM,2.24 µM,6.11 µM,4.59 µM,20.7 µM,11.5 µM,24.9 µM,–,17.3 µM,–,–
C/C=C1\CN2CCc3c([nH]c4ccccc34)C2CC1CCO (stereo not drawn),–,> 100 µM,–,> 100 µM,–,> 100 µM,–,> 100 µM,–,> 100 µM,–,–,–,> 100 µM,–,> 100 µM,–,> 100 µM,–,> 100 µM
